Data: ChEMBL document CHEMBL1131985, “9-[(2'S,3'S)-3'-formyl-2',3'-dihydroxypropyl]adenine: a facile affinity-labeling probe of human S-adenosyl-L-homocysteine hydrolase” (Bioorg Med Chem Lett, 1999)

Tests used:
Adenosylhomocysteinase [1] = target: T1, Adenosylhomocysteinase (Homo sapiens, UniProt P23526); test: Affinity and reactivity of an affinity-labeling reagent, was assessed from the inhibitory constant value
Target sequence in this assay (P23526 whole entry): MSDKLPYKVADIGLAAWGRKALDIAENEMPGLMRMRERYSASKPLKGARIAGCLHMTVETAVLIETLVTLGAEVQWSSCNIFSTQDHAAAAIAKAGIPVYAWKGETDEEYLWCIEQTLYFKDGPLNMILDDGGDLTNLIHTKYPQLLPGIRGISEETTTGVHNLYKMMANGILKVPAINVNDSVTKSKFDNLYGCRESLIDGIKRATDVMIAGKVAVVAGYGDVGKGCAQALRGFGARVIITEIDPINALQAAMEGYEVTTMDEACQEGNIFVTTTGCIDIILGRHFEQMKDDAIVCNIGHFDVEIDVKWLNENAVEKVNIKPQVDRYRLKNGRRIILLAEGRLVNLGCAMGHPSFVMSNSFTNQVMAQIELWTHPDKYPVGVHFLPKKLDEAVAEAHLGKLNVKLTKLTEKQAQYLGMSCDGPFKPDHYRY

Adenosylhomocysteinase [2] = target: T1, Adenosylhomocysteinase; test: Concentration with maximum apparent affinity (Kapp) for S-adenosyl-l-homocysteine (SAH) hydrolase was reported
Target sequence in this assay (P23526 2-432 limits assumed): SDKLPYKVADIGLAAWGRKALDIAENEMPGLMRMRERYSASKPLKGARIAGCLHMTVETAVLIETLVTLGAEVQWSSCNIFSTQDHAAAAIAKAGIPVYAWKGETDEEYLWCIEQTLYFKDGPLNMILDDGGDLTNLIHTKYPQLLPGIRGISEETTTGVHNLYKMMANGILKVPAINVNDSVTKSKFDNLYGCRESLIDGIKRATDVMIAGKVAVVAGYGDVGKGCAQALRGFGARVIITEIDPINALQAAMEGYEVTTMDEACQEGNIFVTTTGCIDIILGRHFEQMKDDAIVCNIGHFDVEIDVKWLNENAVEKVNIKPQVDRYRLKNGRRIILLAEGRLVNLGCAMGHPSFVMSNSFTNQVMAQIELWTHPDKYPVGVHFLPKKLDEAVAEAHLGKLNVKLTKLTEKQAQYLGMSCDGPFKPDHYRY

Adenosylhomocysteinase [3] = target: T1, Adenosylhomocysteinase; test: Affinity and reactivity of an affinity-labeling reagent, was assessed from the inactivation constant value
Target sequence in this assay (P23526 2-432 limits assumed): as above

Ki (Adenosylhomocysteinase [1]): 8.8 µM | K app (Adenosylhomocysteinase [2]): 100 µM | K inact (Adenosylhomocysteinase [3]): 0.09 min⁻¹
SMILES: Nc1ncnc2c1ncn2C[C@H](O)[C@H](O)C=O
